Source: US20230416275A1, “MODULATORS OF CYSTIC FIBROSIS TRANSMEMBRANE CONDUCTANCE REGULATOR” (VERTEX PHARMACEUTICALS INCORPORATED, priority 2020, published 2023)

How the values were obtained:
[1] = molecular target: T1, F508del in NIH 3T3 cells (Homo sapiens, UniProt P13569, DEL508-508); experiment: 3T3 assay: membrane potential optical assay for F508del correction; type: cell-based, mouse; details: for EC50: F508del NIH 3T3 cells, compound incubation 18-24 hours at 37° C., forskolin activation, read-out: 3T3 EC50; for Emax: NIH3T3, F508del NIH 3T3 cells, efficacy compared to lumacaftor in combination with acutely added 300 nM Ivacaftor, read-out: 3T3 Max Activity (%)
T1 construct: expressed in transfected cells
Outline: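 NIH3T3 mouse fibroblasts stably expressing F508del incubated with corrector compounds at a range of concentrations for 16-24 h at 37 °C, then loaded with voltage-sensing redistribution dye. Single addition of forskolin with Cl− gradient (chloride-free gluconate bath vs. NaCl bath, pH 7.4); membrane potential change read by fluorescence on FLIPR.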

[2] = molecular target: CFTR-mediated chloride transport in human intestinal epithelial enteroid cells (Homo sapiens, UniProt P13569); experiment: Membrane potential dye, Enteroid Assay A; type: cell-based; details: for Ent. A Max Activity (%): % of chloride transport of triple combination control (3 μM N-[(6-amino-2-pyridyl)sulfonyl]-6-(3-fluoro-5-isobutoxy-phenyl)-2-[(4S)-2,2,4-trimethylpyrrolidin-1-yl]pyridine-3-carboxamide, 3 μM tezacaftor, 300 nM acute ivacaftor); for EC50: enteroid cells, 18-24 hours incubation, acute 10 μM forskolin and 300 nM ivacaftor, read-out: Ent. A EC50
Outline: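 Enteroids seeded at 5000 cells/well were exposed to test compound in IEMM for 18-24 h at 37 °C, then loaded with methyl oxonol membrane potential dye. Chloride transport was triggered in chloride-free buffer with 10 μM forskolin, 100 μM IBMX and 300 nM Compound III, read by fluorescence for 15 min and expressed as % of a triple-combination control.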

T1 sequence (P13569 with tags, fused parts or gaps DEL508-508): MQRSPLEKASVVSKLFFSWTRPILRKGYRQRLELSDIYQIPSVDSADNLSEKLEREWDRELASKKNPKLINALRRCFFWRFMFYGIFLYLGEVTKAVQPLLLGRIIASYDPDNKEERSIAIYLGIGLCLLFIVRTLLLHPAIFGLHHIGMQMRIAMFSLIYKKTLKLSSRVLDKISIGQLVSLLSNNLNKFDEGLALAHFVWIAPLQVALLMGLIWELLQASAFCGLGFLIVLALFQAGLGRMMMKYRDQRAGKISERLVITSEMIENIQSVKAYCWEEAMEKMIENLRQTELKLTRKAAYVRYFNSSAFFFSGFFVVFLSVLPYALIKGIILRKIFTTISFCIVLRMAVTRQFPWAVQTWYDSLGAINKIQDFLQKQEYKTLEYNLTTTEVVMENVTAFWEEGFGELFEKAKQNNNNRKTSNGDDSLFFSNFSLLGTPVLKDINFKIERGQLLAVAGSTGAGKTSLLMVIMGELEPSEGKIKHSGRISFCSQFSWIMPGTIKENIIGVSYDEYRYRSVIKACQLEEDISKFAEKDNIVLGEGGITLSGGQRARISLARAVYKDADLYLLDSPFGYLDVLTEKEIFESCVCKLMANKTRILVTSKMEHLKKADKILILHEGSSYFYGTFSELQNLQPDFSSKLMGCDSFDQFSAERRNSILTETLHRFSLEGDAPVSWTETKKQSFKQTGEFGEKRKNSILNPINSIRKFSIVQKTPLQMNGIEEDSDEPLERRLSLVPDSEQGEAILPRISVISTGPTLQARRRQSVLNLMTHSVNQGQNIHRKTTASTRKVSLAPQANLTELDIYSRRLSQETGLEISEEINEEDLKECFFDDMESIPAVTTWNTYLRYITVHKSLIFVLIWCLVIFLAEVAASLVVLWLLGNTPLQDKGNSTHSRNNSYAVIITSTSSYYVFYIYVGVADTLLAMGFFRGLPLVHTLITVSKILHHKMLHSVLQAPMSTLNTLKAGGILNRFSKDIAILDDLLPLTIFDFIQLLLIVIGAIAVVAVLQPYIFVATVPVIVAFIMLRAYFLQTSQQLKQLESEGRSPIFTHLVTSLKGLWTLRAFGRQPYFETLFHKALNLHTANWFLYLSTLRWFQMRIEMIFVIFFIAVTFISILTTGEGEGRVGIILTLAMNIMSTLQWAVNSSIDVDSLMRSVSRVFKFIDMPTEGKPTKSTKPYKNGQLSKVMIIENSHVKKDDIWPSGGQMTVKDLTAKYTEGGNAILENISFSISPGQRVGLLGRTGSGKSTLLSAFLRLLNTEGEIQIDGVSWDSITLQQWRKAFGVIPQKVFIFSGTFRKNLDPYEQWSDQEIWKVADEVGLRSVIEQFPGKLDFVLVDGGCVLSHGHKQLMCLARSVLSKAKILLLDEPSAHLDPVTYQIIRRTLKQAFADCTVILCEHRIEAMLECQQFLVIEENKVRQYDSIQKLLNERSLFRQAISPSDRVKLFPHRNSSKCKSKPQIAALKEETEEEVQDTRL
Sequence of CFTR-mediated chloride transport in human intestinal epithelial enteroid cells (P13569 with tags, fused parts or gaps DEL508-508): as above

EC50 [1]	Emax [1]	EC50 [2]	SMILES	Ent. A Max Activity (%) [2]
< 1 µM	> 60%	< 1 µM	Cc1cccc(C)c1-c1cc2nc(n1)NS(=O)(=O)c1cccc(n1)NC(=O)C1CC(CN(CCC(C)(C)C3CC3)C1)O2 (stereo not shown) [Compound 15, 5-(3-Cyclopropyl-3-methylbutyl)-19-(2,6-dimethylphenyl)-2-oxa-15λ^6-thia-5,9,16,18,21,22-hexaazatetracyclo[15.3.1.13,7.110,14]tricosa-1(21),10,12,14(22),17,19-hexaene-8,15,15-trione]	++ (++ is 30-60%)
< 1 µM	> 60%	< 1 µM	Cc1cccc(C)c1-c1cc2nc(n1)NS(=O)(=O)c1cccc(c1)NC(=O)[C@@H]1C[C@@H](CN(CCCCC(C)(C)C)C1)O2 [Compound 21]	++ (++ is 30-60%)
< 1 µM	> 60%	< 1 µM	Cc1cccc(C)c1-c1cc2nc(n1)NS(=O)(=O)c1cccc(c1)NC(=O)[C@@H]1C[C@@H](CN(CC(C3CC3)C3CC3)C1)O2 [Compound 24]	++ (++ is 30-60%)
< 1 µM	> 60%	< 1 µM	Cc1cccc(C)c1-c1cc2nc(n1)NS(=O)(=O)c1cccc(c1)NC(=O)[C@@H]1C[C@@H](CN(CC34CC(C3)C4)C1)O2 [Compound 25]	++ (++ is 30-60%)
< 1 µM	> 60%	< 1 µM	Cc1cccc(C)c1-c1cc2nc(n1)NS(=O)(=O)c1cccc(c1)NC(=O)[C@@H]1C[C@@H](CN(CCC3(C(F)(F)F)CC3)C1)O2 [Compound 27]	+++ (+++ is >60%)
< 1 µM	> 60%	< 1 µM	Cc1cccc(C)c1-c1cc2nc(n1)NS(=O)(=O)c1cccc(c1)NC(=O)[C@@H]1C[C@@H](CN(CCC3CC3)C1)O2 [Compound 28]	++ (++ is 30-60%)
< 1 µM	> 60%	1 to 3 µM	Cc1cccc(C)c1-c1cc2nc(n1)NS(=O)(=O)c1cccc(c1)NC(=O)[C@@H]1C[C@@H](CN(CC3CC3)C1)O2 [Compound 30]	++ (++ is 30-60%)
< 1 µM	> 60%	1 to 3 µM	Cc1cccc(C)c1-c1cc2nc(n1)NS(=O)(=O)c1cccc(c1)NC(=O)[C@@H]1C[C@@H](CN(C(=O)OCCF)C1)O2 [Compound 33]	++ (++ is 30-60%)
3 to 30 µM	> 60%		Cc1cccc(C)c1-c1cc2nc(n1)NS(=O)(=O)c1cccc(c1)NC(=O)[C@H]1C[C@@H](CN(C(=O)NC(C)(C)C)C1)O2 [Compound 42]	+ (+ is <30%)
3 to 30 µM	> 60%		Cc1cccc(C)c1-c1cc2nc(n1)NS(=O)(=O)c1cccc(c1)NC(=O)[C@H]1C[C@H](CN(C(=O)NC(C)(C)C)C1)O2 [Compound 43]	+ (+ is <30%)
< 1 µM	> 60%	3 to 30 µM	Cc1cccc(C)c1-c1cc2nc(n1)NS(=O)(=O)c1cccc(c1)NC(=O)[C@@H]1C[C@@H](CN(C(=O)NC(C)(C)C)C1)O2 [Compound 44]	+++ (+++ is >60%)
< 1 µM	> 60%	1 to 3 µM	Cc1cccc(C)c1-c1cc2nc(n1)NS(=O)(=O)c1cccc(c1)NC(=O)[C@@H]1C[C@@H](CN(C(=O)CC(C)(C)C)C1)O2 [Compound 45]	+++ (+++ is >60%)
< 1 µM	> 60%	1 to 3 µM	Cc1cccc(C)c1-c1cc2nc(n1)NS(=O)(=O)c1cccc(c1)NC(=O)[C@@H]1C[C@@H](CN(C(=O)C(C)(C)C)C1)O2 [Compound 46]	+++ (+++ is >60%)
	30 to 60%		Cc1cccc(C)c1-c1cc2nc(n1)NS(=O)(=O)c1cccc(c1)NC(=O)[C@H]1CNC[C@@H](C1)O2 [Compound 47]	+ (+ is <30%)
